From ChEMBL document CHEMBL3046005, “New Insecticidal 4-Acetoxy-2-alkenylquinolines” (1996)

Experiments:
Type in all cases: functional
Bombyx mori [1] = test: Insecticidal activity against Bombyx mori larvae assessed as mortality at 40 ug administered topically measured after 48 hr
Bombyx mori [2] = test: Insecticidal activity against Bombyx mori larvae assessed as mortality at 2.5 ug administered topically measured after 48 hr
Bombyx mori [3] = test: Insecticidal activity against Bombyx mori larvae assessed as mortality at 10 ug administered topically measured after 48 hr
Plutella xylostella [4] = test: Insecticidal activity against Plutella xylostella (diamondback moth) larvae assessed as mortality at 250 ppm by leaf spray method
Bombyx mori [5] = test: Insecticidal activity against Bombyx mori larvae assessed as mortality at 0.63 ug administered topically measured after 48 hr
Tetranychus urticae [6] = test: Insecticidal activity against Tetranychus urticae (two-spotted spider mite) eggs assessed as mortality at 1000 ppm by leaf spray method
Plutella xylostella [7] = test: Insecticidal activity against Plutella xylostella (diamondback moth) larvae assessed as mortality at 500 ppm by leaf spray method
Laodelphax striatellus [8] = test: Insecticidal activity against Laodelphax striatella (small brown planthopper) larvae assessed as mortality at 250 ppm by leaf spray method
Tetranychus urticae [9] = test: Insecticidal activity against Tetranychus urticae (two-spotted spider mite) eggs assessed as mortality at 250 ppm by leaf spray method
Plutella xylostella [10] = test: Insecticidal activity against Plutella xylostella (diamondback moth) larvae assessed as mortality at 1000 ppm by leaf spray method
Laodelphax striatellus [11] = test: Insecticidal activity against Laodelphax striatella (small brown planthopper) larvae assessed as mortality at 500 ppm by leaf spray method
Laodelphax striatellus [12] = test: Insecticidal activity against Laodelphax striatella (small brown planthopper) larvae assessed as mortality at 1000 ppm by leaf spray method
Tetranychus urticae [13] = test: Insecticidal activity against Tetranychus urticae (two-spotted spider mite) eggs assessed as mortality at 500 ppm by leaf spray method

## CCCCCC/C=C/Cc1[nH]c2ccccc2c(=O)c1C
Bombyx mori [1]
  Activity: 20%
Bombyx mori [2]
  Activity: 0%
Bombyx mori [3]
  Activity: 0%

## CCCCCC/C=C/C(O)c1nc2ccccc2c(OC(C)=O)c1C (configuration not stated)
Bombyx mori [1]
  Activity: 85%
Bombyx mori [2]
  Activity: 0%
Bombyx mori [3]
  Activity: 10%

## CCCCC/C=C/C=C/c1nc2ccccc2c(OC(C)=O)c1C
Bombyx mori [1]
  Activity: 100%
Bombyx mori [2]
  Activity: 0%
Bombyx mori [3]
  Activity: 0%

## CCCCCCC/C=C\c1nc2ccccc2c(OC(C)=O)c1C
Plutella xylostella [4]
  Activity: 100%
Bombyx mori [5]
  Activity: 65%
Tetranychus urticae [6]
  Activity: 100%
Plutella xylostella [7]
  Activity: 100%
Bombyx mori [1]
  Activity: 100%
Laodelphax striatellus [8]
  Activity: 76%
Tetranychus urticae [9]
  Activity: 68.2%
Plutella xylostella [10]
  Activity: 100%
Laodelphax striatellus [11]
  Activity: 94%
Laodelphax striatellus [12]
  Activity: 100%
Bombyx mori [2]
  Activity: 100%
Tetranychus urticae [13]
  Activity: 100%
Bombyx mori [3]
  Activity: 100%

## CCCCCCC/C=C/c1nc2ccccc2c(OC(C)=O)c1C
Bombyx mori [5]
  Activity: 0%
Bombyx mori [1]
  Activity: 100%
Bombyx mori [2]
  Activity: 100%
Bombyx mori [3]
  Activity: 100%

## CCCCCC/C=C/Cc1nc2ccccc2c(OC(C)=O)c1C
Bombyx mori [5]
  Activity: 15%
Bombyx mori [1]
  Activity: 100%
Bombyx mori [2]
  Activity: 100%
Bombyx mori [3]
  Activity: 100%

## CCCCCC/C=C/C(O)c1nc2ccccc2c(O)c1C (configuration not stated)
Bombyx mori [1]
  Activity: 5%
Bombyx mori [2]
  Activity: 0%
Bombyx mori [3]
  Activity: 0%

## CCCCC/C=C/C=C/c1nc2ccccc2c(O)c1C
Bombyx mori [1]
  Activity: 0%
Bombyx mori [2]
  Activity: 0%
Bombyx mori [3]
  Activity: 0%

## CCCCCCC/C=C\c1nc2ccccc2c(O)c1C
Bombyx mori [1]
  Activity: 70%
Bombyx mori [2]
  Activity: 0%
Bombyx mori [3]
  Activity: 20%

## CCCCCCC/C=C/c1nc2ccccc2c(O)c1C
Bombyx mori [1]
  Activity: 0%
Bombyx mori [2]
  Activity: 0%
Bombyx mori [3]
  Activity: 0%
